# Test results as given in ChEMBL document CHEMBL1201862, “PubChem BioAssay data set” (2004).
# Active and inactive are the calls of the source.
# Columns and labels:
# [1] = human group III sPLA2 inhibitors, dose response, biochemical, QFRET, IC50 (AID 743457);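 note: green fluorescence rise as the enzyme cleaves BODIPY PC-A2 in liposomes; potency for inhibition of the enzyme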
# [2] = HepG2 cell cytotoxicity, dose response, cytotoxicity control, plate reader, cherry-pick, antagonist series (AID 743416); format: functional, cell-based
# [3] = HEK293 cell cytotoxicity, dose response, cytotoxicity control, plate reader, cherry-picked samples (AID 743446); format: functional, cell-based
# [4] = A549 cell cytotoxicity, dose response, cytotoxicity control, plate reader, cherry-pick, antagonist series (AID 743412); format: functional, cell-based
# [5] = MC4R antagonists, dose response, counter-screen for LGR2 antagonist project, cell-based, plate reader, cherry pick (AID 743444); format: functional;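 note: transfected HEK 293 cells stimulated with alpha-MSH peptide; potency of inhibitors of the alpha-MSH evoked signal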
# [6] = LGR2 antagonists, dose response, cell-based, HEK293, CRE-luciferase reporter, cherry pick (AID 743342); format: functional
# [7] = HEK293T cytotoxicity, dose response, cytotoxicity control for miR-122 modulator project, cell-based, inhibitor set, cherry-pick, set 2 (AID 720697); format: functional
# [8] = miR-122 activators in hepatoma reporter cells, dose response, cell-based, Huh7 psiCHECK-miR122, Renilla luciferase, cherry-picked (AID 651956); format: functional;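 note: huh7 hepatoma cells stably carrying a psiCHECK-2 miR-122 sensor plasmid; renilla luciferase signal reporting endogenous miR-122 activity after 48 h compound exposure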
# [9] = HeLa cell cytotoxicity, dose response, cytotoxicity control, 24 h, plate reader, dry powder (AID 686928); format: functional, cell-based
# [10] = Luminescence Cell-Based Dose Response HTS to Identify Inhibitors of 5'UTR Stem-Loop Driven Prion Protein mRNA Translation in H4 Neuroglioblastoma Cells. [Related pubchem assays: 1827 (Project Summary), 1813 (Primary HTS)]; format: functional
# [11] = target: Disintegrin and metalloproteinase domain-containing protein 17 (Homo sapiens, UniProt P78536); experiment: exosite inhibitors of ADAM17, dose response, biochemical (AID 743260)
# Disintegrin and metalloproteinase domain-containing protein 17, sequence (P78536 whole entry, the tested form may be a part): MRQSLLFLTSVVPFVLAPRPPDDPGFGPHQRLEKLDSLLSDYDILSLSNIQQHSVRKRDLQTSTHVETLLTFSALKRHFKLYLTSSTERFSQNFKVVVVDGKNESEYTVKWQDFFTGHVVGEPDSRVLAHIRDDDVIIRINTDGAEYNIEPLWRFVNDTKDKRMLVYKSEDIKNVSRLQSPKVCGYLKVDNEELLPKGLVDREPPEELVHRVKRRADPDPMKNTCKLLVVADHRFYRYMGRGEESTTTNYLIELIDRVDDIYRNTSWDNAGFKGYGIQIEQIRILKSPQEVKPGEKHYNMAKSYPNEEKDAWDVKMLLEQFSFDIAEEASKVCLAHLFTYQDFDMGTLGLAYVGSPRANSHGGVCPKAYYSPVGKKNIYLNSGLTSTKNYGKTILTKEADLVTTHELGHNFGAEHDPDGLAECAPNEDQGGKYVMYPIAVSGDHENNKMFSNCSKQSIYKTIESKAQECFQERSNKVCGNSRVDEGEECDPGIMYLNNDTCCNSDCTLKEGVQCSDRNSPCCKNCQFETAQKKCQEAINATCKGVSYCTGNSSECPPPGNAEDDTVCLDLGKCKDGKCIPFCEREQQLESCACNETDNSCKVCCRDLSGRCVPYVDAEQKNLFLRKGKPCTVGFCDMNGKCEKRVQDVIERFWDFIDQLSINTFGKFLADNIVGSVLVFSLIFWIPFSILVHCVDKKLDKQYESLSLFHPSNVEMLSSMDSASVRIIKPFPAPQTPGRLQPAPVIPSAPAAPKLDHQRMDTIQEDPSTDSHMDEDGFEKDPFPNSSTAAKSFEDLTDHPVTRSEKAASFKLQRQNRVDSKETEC
# [12] = ADAM10 protease inhibitors, dose response, selectivity assay for ADAM17 exosite inhibitor project, biochemical, FRET peptide substrate, recombinant human ADAM10 (AID 743259);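 note: ADAM10 enzyme cleaving a FRET peptide substrate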
# [13] = inhibitors of SNCA 5'UTR-driven reporter translation, confirmation, H4 neuroglioma cells, luminescence (AID 1988); format: functional, cell-based
# [14] = inhibitors of firefly luciferase expression or activity, dose response, H4 neuroglioma cells, luminescence (AID 1990); format: functional, cell-based
# [15] = A2780 ovarian cancer cell cytotoxicity, dose response, cytotoxicity control, plate reader, dry powder samples (AID 743046); format: functional, cell-based
# Paired box protein Pax-8 = Paired box protein Pax-8 (Homo sapiens, UniProt Q06710); experiment: inhibitors of PAX8-driven TPO luciferase reporter, dose response, RMG-I cells, cherry-pick (AID 687027); format: functional, cell-based;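 note: luciferase reporter driven by Pax8 target thyroperoxidase promoter measured by SteadyGlo luminescence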
# Paired box protein Pax-8, sequence (Q06710 whole entry): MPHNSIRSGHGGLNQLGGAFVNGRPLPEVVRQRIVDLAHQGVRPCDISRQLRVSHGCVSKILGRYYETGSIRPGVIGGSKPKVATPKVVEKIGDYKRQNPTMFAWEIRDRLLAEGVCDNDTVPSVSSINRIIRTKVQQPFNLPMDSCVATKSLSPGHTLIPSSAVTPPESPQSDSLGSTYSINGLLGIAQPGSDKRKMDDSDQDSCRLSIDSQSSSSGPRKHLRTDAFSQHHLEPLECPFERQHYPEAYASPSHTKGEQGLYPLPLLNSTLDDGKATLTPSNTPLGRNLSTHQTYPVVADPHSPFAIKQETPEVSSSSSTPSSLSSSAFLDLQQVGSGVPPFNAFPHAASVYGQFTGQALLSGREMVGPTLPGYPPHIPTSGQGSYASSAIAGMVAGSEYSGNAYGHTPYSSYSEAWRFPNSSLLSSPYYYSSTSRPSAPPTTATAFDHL
# [16] = IOSE-T80 ovarian epithelial cell cytotoxicity, dose response, cytotoxicity control for PAX8 inhibitor project, plate reader, dry powder samples (AID 743045); format: functional, cell-based
# [17] = IGROV1 ovarian cancer cell cytotoxicity, dose response, PAX8 inhibitor project, plate reader, dry powder samples (AID 743043); format: functional, cell-based; conditions: IGROV-1
# [18] = cytotoxicity in OVCAR8 ovarian cancer cells, dose response, PAX8 project, cell-based, plate reader, dry powder samples (AID 743197); format: functional; conditions: OVCAR-8
# [19] = NIH:OVCAR-3 ovarian cancer cell cytotoxicity, dose response, PAX8 inhibitor project, plate reader, dry powder samples (AID 743044); format: functional, cell-based
smiles,measurement,setting,value
Cn1cc(Cl)c(C(=O)NN=C(S)Nc2cccc(Cl)c2)n1,IC50,[1],> 122 µM (inactive)
C[C@@H]1CN([C@@H](C)CO)C(=O)c2cc(NC(=O)c3ccncc3)ccc2O[C@@H](C)CCCCO[C@H]1CN(C)C(=O)Nc1cccc2ccccc12,AC50,[2],17.1 µM (active)
same,AC50,[3],17.1 µM (active)
same,AC50,[4],14.3 µM (active)
same,AC50,[5],9.74 µM (active)
same,AC50,[6],2.91 µM (active)
CC(=O)N(C)C[C@H]1Oc2cc(/C=C/c3ccccc3)ccc2S(=O)(=O)N([C@@H](C)CO)C[C@H]1C,AC50,[7],0.451 µM (active)
same,AC50,[8],26.9 µM (active)
Cc1ccc2cc3c(NC(=O)c4ccco4)nn(C)c3nc2c1,AC50,[9],179 µM (active)
same,AC50,[9]; 24 h,121 µM (active)
CCNC(=S)N/N=C/c1cn(Cc2ccccc2F)c2ccccc12,EC50,[10],24.4 µM (active)
same,IC50,[11],> 69.5 µM (inactive)
same,IC50,[12],> 69.5 µM (inactive)
same,EC50,[13],19.7 µM (active)
same,EC50,[14],15.9 µM (active)
C[C@@H]1CCCCO[C@@H](CN(C)Cc2ccc(Cl)c(Cl)c2)[C@H](C)CN([C@@H](C)CO)C(=O)c2cc(NC(=O)CCC(F)(F)F)ccc2O1,AC50,[15],27.3 µM (active)
same,AC50,Paired box protein Pax-8,9.32 µM (active)
same,AC50,[16],23.4 µM (active)
same,AC50,[17],21.9 µM (active)
same,AC50,[18],17.1 µM (active)
same,AC50,[19],16.1 µM (active)
